Source: patent publication US9695155B2, “Herbicidal substituted pyrimidinyloxy benzene compounds” (E. I. DU PONT DE NEMOURS AND COMPANY, priority 2013, dated 2017)

Experiments:
barnyardgrass [1] = assay: Test A preemergence; assay type: in vivo, Echinochloa crus-galli; conditions: for Plant response rating, Barnyardgrass: 125 g ai/ha, 0 to 100 scale where 0 is no effect and 100 is complete control; for Barnyardgrass plant response rating: 500 g ai/ha, 0 to 100 scale, 0 no effect, 100 complete control, approx. 10 days
How it was run: (§1)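 Visual 0–100 rating (100 = complete control) taken about 10 d post-treatment relative to untreated checks. Preemergence: directed soil spray on sown loam/sand pots. Postemergence: seedlings 2–10 cm, 1–2 leaf. Non-phytotoxic solvent formulation with surfactant.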

large (Lg) crabgrass [2] = assay: Test A preemergence; assay type: in vivo, Digitaria sanguinalis; conditions: for Plant response rating, Crabgrass, Large: 125 g ai/ha, 0 to 100 scale where 0 is no effect and 100 is complete control; for Crabgrass, Large plant response rating: 500 g ai/ha, 0 to 100 scale, 0 no effect, 100 complete control, approx. 10 days
How it was run: as §1

giant foxtail [3] = assay: Test A preemergence; assay type: in vivo, Setaria faberii; conditions: for Plant response rating, Foxtail, Giant: 125 g ai/ha, 0 to 100 scale where 0 is no effect and 100 is complete control; for Foxtail, Giant plant response rating: 500 g ai/ha, 0 to 100 scale, 0 no effect, 100 complete control, approx. 10 days
How it was run: as §1

morningglory [4] = assay: Test A preemergence; assay type: in vivo, Ipomoea spp.; conditions: for Plant response rating, Morningglory: 125 g ai/ha, 0 to 100 scale where 0 is no effect and 100 is complete control; for Morningglory plant response rating: 500 g ai/ha, 0 to 100 scale, 0 no effect, 100 complete control, approx. 10 days
How it was run: as §1

pigweed [5] = assay: Test A preemergence; assay type: in vivo, Amaranthus retroflexus; conditions: for Plant response rating, Pigweed: 125 g ai/ha, 0 to 100 scale where 0 is no effect and 100 is complete control; for Pigweed plant response rating: 500 g ai/ha, 0 to 100 scale, 0 no effect, 100 complete control, approx. 10 days
How it was run: as §1

velvetleaf [6] = assay: Test A preemergence; assay type: in vivo, Abutilon theophrasti; conditions: for Plant response rating, Velvetleaf: 125 g ai/ha, 0 to 100 scale where 0 is no effect and 100 is complete control; for Velvetleaf plant response rating: 500 g ai/ha, 0 to 100 scale, 0 no effect, 100 complete control, approx. 10 days
How it was run: as §1

wheat [7] = assay: Test A preemergence; assay type: in vivo, Triticum aestivum; conditions: for Plant response rating, Wheat: 125 g ai/ha, 0 to 100 scale where 0 is no effect and 100 is complete control; for Wheat plant response rating: 500 g ai/ha, 0 to 100 scale, 0 no effect, 100 complete control, approx. 10 days
How it was run: as §1

corn [8] = assay: Test A preemergence; assay type: in vivo, Zea mays; conditions: for Plant response rating, Corn: 125 g ai/ha, 0 to 100 scale where 0 is no effect and 100 is complete control; for Corn plant response rating: 500 g ai/ha, 0 to 100 scale, 0 no effect, 100 complete control, approx. 10 days
How it was run: as §1

barnyardgrass [9] = assay: Test A postemergence; assay type: in vivo, Echinochloa crus-galli
How it was run: as §1

large (Lg) crabgrass [10] = assay: Test A postemergence; assay type: in vivo, Digitaria sanguinalis
How it was run: as §1

giant foxtail [11] = assay: Test A postemergence; assay type: in vivo, Setaria faberii
How it was run: as §1

morningglory [12] = assay: Test A postemergence; assay type: in vivo, Ipomoea spp.
How it was run: as §1

pigweed [13] = assay: Test A postemergence; assay type: in vivo, Amaranthus retroflexus
How it was run: as §1

velvetleaf [14] = assay: Test A postemergence; assay type: in vivo, Abutilon theophrasti
How it was run: as §1

wheat [15] = assay: Test A postemergence; assay type: in vivo, Triticum aestivum
How it was run: as §1

corn [16] = assay: Test A postemergence; assay type: in vivo, Zea mays
How it was run: as §1

rice = assay: Test B flooded paddy test; assay type: in vivo, Oryza sativa; conditions: Flood, 250 g ai/ha; 0 to 100 scale where 0 is no effect and 100 is complete control
How it was run: (§2)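 Seedlings are raised to two leaves, flooded to a depth of 3 cm and dosed by adding the compound to the floodwater. Water level is kept constant, and plants are scored visually versus controls 13–15 days later (0 = no effect, 100 = complete control).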

sedge, umbrella = assay: Test B flooded paddy test; assay type: in vivo, Cyperus difformis; conditions: Flood, 250 g ai/ha; 0 to 100 scale where 0 is no effect and 100 is complete control
How it was run: as §2

Heteranthera limosa = assay: Test B flooded paddy test; assay type: in vivo; conditions: Flood, 250 g ai/ha; 0 to 100 scale where 0 is no effect and 100 is complete control
How it was run: as §2

barnyardgrass [17] = assay: Test B flooded paddy test; assay type: in vivo, Echinochloa crus-galli; conditions: Flood, 250 g ai/ha; 0 to 100 scale where 0 is no effect and 100 is complete control
How it was run: as §2

[18] = 125 g ai/ha, 0 to 100 scale where 0 is no effect and 100 is complete control
[19] = 500 g ai/ha, 0 to 100 scale, 0 no effect, 100 complete control

Row | SMILES | Plant response rating, Barnyardgrass (barnyardgrass [1]) | Barnyardgrass plant response rating (barnyardgrass [1]) | Plant response rating, Crabgrass, Large (large (Lg) crabgrass [2]) | Crabgrass, Large plant response rating (large (Lg) crabgrass [2]) | Plant response rating, Foxtail, Giant (giant foxtail [3]) | Foxtail, Giant plant response rating (giant foxtail [3]) | Plant response rating, Morningglory (morningglory [4]) | Morningglory plant response rating (morningglory [4]) | Plant response rating, Pigweed (pigweed [5]) | Pigweed plant response rating (pigweed [5]) | Plant response rating, Velvetleaf (velvetleaf [6]) | Velvetleaf plant response rating (velvetleaf [6]) | Plant response rating, Wheat (wheat [7]) | Wheat plant response rating (wheat [7]) | Plant response rating, Corn (corn [8]) | Corn plant response rating (corn [8]) | Plant response rating, Barnyardgrass (barnyardgrass [9]; [18]) | Plant response rating, Barnyardgrass (barnyardgrass [9]; [19]) | Plant response rating, Crabgrass, Large (large (Lg) crabgrass [10]; [18]) | Plant response rating, Crabgrass, Large (large (Lg) crabgrass [10]; [19]) | other results
1 | N#Cc1cccc(Oc2ncc(I)cn2)c1-n1cc(Br)cn1 [Compound 60] | 0 | 70 | 40 | 100 | 20 | 90 | 0 | 0 | 30 | 100 | 0 | 40 | 0 | 0 | 0 | 0 | 20 | 50 | 10 | 70 | Plant response rating, Foxtail, Giant (giant foxtail [11]; [18]): 20; Plant response rating, Foxtail, Giant (giant foxtail [11]; [19]): 80; Plant response rating, Morningglory (morningglory [12]; [18]): 10; Plant response rating, Morningglory (morningglory [12]; [19]): 50; Plant response rating, Pigweed (pigweed [13]; [18]): 50; Plant response rating, Pigweed (pigweed [13]; [19]): 100; Plant response rating, Velvetleaf (velvetleaf [14]; [18]): 50; Plant response rating, Velvetleaf (velvetleaf [14]; [19]): 100; Plant response rating, Wheat (wheat [15]; [18]): 0; Plant response rating, Wheat (wheat [15]; [19]): 10; Plant response rating, Corn (corn [16]; [18]): 0; Plant response rating, Corn (corn [16]; [19]): 30; Plant response rating, Rice (rice): 0; Plant response rating, Sedge, Umbrella (sedge, umbrella): 0; Plant response rating, Ducksalad (Heteranthera limosa): 0; Plant response rating, Barnyardgrass (barnyardgrass [17]): 0
2 | Brc1cnc(Oc2ccccc2-n2cc(Br)c(Br)n2)nc1 [Compound 24] | 0 | 0 | 0 | 0 | 0 | 0 | 0 | 0 | 0 | 0 | 0 | 0 | 0 | 0 | 0 | 0 | 0 | 0 | 0 | 0 | Plant response rating, Foxtail, Giant (giant foxtail [11]; [18]): 0; Plant response rating, Foxtail, Giant (giant foxtail [11]; [19]): 0; Plant response rating, Morningglory (morningglory [12]; [18]): 0; Plant response rating, Morningglory (morningglory [12]; [19]): 0; Plant response rating, Pigweed (pigweed [13]; [18]): 0; Plant response rating, Pigweed (pigweed [13]; [19]): 60; Plant response rating, Velvetleaf (velvetleaf [14]; [19]): 0; Plant response rating, Wheat (wheat [15]; [18]): 0; Plant response rating, Wheat (wheat [15]; [19]): 0; Plant response rating, Corn (corn [16]; [18]): 0; Plant response rating, Corn (corn [16]; [19]): 0; Plant response rating, Rice (rice): 35; Plant response rating, Sedge, Umbrella (sedge, umbrella): 60; Plant response rating, Ducksalad (Heteranthera limosa): 0; Plant response rating, Barnyardgrass (barnyardgrass [17]): 0
